From patent US9151761B2, “Predictive biomarker of survival in the treatment of renal cell carcinoma” (Amgen Inc., priority 2011, dated 2015)

Tested on: advanced clear cell carcinoma of the kidney
Test: Phase 2 study of AMG 386 plus sorafenib: progression free survival by baseline serum PLGF above vs below the median (28 pg/mL)
Format: in vivo, human
Details: sorafenib only, 400 mg PO BID (placebo AMG 386), FIG. 4
Description: FIGS. 1-4 are Kaplan-Meier plots showing progression free survival differences between subjects with patient PLGF concentrations above and below the median PLGF concentration parameter (28 pg/mL). 123 patients total with 43 patients administered AMG 386 at 10 mg/kg, 39 patients at 3 mg/kg, and 41 patients at 0 mg/kg. All patients were also dosed with 400 mg sorafenib orally, twice a day. […]
The number of patients to be enrolled was approximately 150. […] The primary outcome measured was PFS while the secondary outcome included objective response rate, duration of response, and change in continuous measures of tumor burden.
Renal cancer patient's circulating levels of protein placental growth factor (PLGF) was analyzed along with a number of other analytes to determine if it was predictive of how well they will respond after treatment with AMG 386 and sorafenib. […] The baseline patient PLGF concentration was analyzed to determine if it was informative of how well the patient would respond to the treatment regimens.
The patients PLGF concentrations were determined and tested for statistical association with progression free survival (PFS) time. […] Predictive significance was determined with a Cox proportional hazards model of PFS with the factors PLGF, cohort, and the interaction between PLGF and cohort. […]

CNC(=O)c1cc(Oc2ccc(NC(=O)Nc3ccc(Cl)c(C(F)(F)F)c3)cc2)ccn1 [sorafenib]
Cox proportional hazard ratio (HR) of progression free survival, patient PLGF above vs below median (41 patients (23 above, 18 below)): 0.83
difference in median survival, patient PLGF above vs below median (41 patients): 1 days
